Experiments:
Assay type in all cases: cell-based, human
[1] = test system: adipose mesenchymal stem cells; test: Viability of stem cells suspended in physiological saline containing acetylsalicylic acid
Experimental: The adipose mesenchymal stem cells isolated in Example 1 were treated with trypsin, and then suspended at a concentration of 1.0×10^7 cells in physiological saline containing varying concentrations of acetylsalicylic acid (Sigma; A5376), after which the viability of the cells at 12 hours and 24 hours after the suspension was observed. The physiological saline containing acetylsalicylic acid was prepared by adding acetylsalicylic acid to physiological saline at varying concentrations and sonicating it at 37° C. for 30 minutes.

[2] = test system: adipose mesenchymal stem cells; test: FACS analysis of surface marker expression after suspension in saline containing aspirin lysine and cold storage
Experimental: (§1) The adipose mesenchymal stem cells isolated in Example 1 were treated with trypsin, and then suspended at a concentration of 1.0×10^7 cells in physiological saline containing varying concentrations of aspirin lysine (Shin Poong Pharm. Co., Ltd, Korea). Then, the cells were incubated for 5 days, and the cell count of the cells was measured. In addition, the cells were cold-stored for 24 hours, and then the characteristics of the cells were analyzed by FACS.

[3] = test system: adipose mesenchymal stem cells; test: Viability and cell count after 5 days of incubation following suspension in saline containing aspirin lysine; conditions: varying concentrations in physiological saline
Experimental: as §1

[4] = 0.1 mg/10 ml, cold-stored for 24 hours, FACS

Row | Compound | cytotoxicity ([1]; 1.0 mg or more added to 10 ml of physiological saline) | Viability ([1]; 1.0 mg/10 ml in physiological saline, 12 hours after suspension) [%] | Viability ([1]; 1.0 mg/10 ml in physiological saline, 24 hours after suspension) [%] | Viability ([1]; 2.0 mg/10 ml in physiological saline, 12 hours after suspension) [%] | Viability ([1]; 2.0 mg/10 ml in physiological saline, 24 hours after suspension) [%] | Viability ([1]; 5.0 mg/10 ml in physiological saline, 12 hours after suspension) [%] | Viability ([1]; 5.0 mg/10 ml in physiological saline, 24 hours after suspension) [%] | Expression rate CD29 [2, 4] [%] | Expression rate CD31 [2, 4] [%] | Expression rate CD44 [2, 4] [%] | Expression rate CD45 [2, 4] [%] | Expression rate CD90 [2, 4] [%] | Expression rate CD105 [2, 4] [%] | characteristics of the adipose mesenchymal stem cells (FACS) ([2]; suspended 24 hours in aspirin-containing saline, then cold-stored 24 hours) | cell viability depending on concentration [3] | count of the cells after 5 days of incubation [3]
1 | CC(=O)Oc1ccccc1C(=O)O [acetylsalicylic acid] | cytotoxic | 50 | 10 | 20 | 10 | 10 | 5 | – | – | – | – | – | – | – | – | –
2 | CC(=O)Oc1ccccc1C(=O)O [aspirin lysine] | – | – | – | – | – | – | – | 99.97 | 0.21 | 99.25 | 0.17 | 99.66 | 99.89 | not dependent on the concentration of aspirin lysine | somewhat decreased depending on the concentration of aspirin lysine, but this decrease was not significant | did not almost differ between the concentrations of aspirin lysine

From patent publication US20160081917A1, “STEM CELL COMPOSITION FOR VENOUS ADMINISTRATION” (K-STEMCELL CO., LTD, priority 2013, published 2016)
